Like-named read-outs stand apart in the source and are kept apart here. Numbered stars: 1 amine (or outer) side, 2 acyl side, 3 side chain; on linkers, the order of the positions; unused ones are H or OH. Square brackets hold non-standard residues; d marks the D form. Side chains are listed from the residue outwards. Peptide text beside a SMILES is read from it. * marks the point of attachment. DOTA = O=C(O)CN1CCN(CC(=O)O)CCN(CC(=O)*)CCN(CC(=O)O)CC1; d(γGlu) = O=C(O)[C@@H](CCC(=O)[*:2])N[*:1]; 1Nal = N[C@@H](Cc1cccc2ccccc12)C(=O)O; NMeNle = CCCC[C@H](NC)C(=O)O; PEG4 = NCCOCCOCCOCCOCCC(=O)O
Assay: Ex vivo biodistribution of 177Lu-labeled compound
Set-up: species or system BALB/c nude mice
Conditions: mouse, in vivo; for tissue to tissue ratio at 24 h / tissue to tissue ratio at 48 h / tissue to tissue ratio at 72 h / tissue to tissue ratio at 96 h / tissue to tissue ratio at 1 h / tissue to tissue ratio at 4 h: female, BALB/c nude, iv, total radioactivity
Experimental: To evaluate the biodistribution of [^177Lu]Lu-DOTA-CCK2R-dimer, AR42J tumor-bearing mice received intravenous (i.v.) injections of 3.7 MBq (≈ 120 pmol) of [^177Lu]Lu-DOTA-CCK2R-dimer (dissolved in 200 μL of saline; n = 3/group), and Mice were sacrificed at 1, 4, 24, 48, 72, and 96 h post-injection. The tissues of interest were excised, weighed, and analyzed for radioactivity using a γ-counter.
All animal studies were approved by the Ethics Committee of Fudan University Shanghai Cancer Center (No. FUSCC-IACUC- S2023- 0003). Five-week-old female BALB/c nude mice were purchased from Shanghai SLAC Laboratory Animal
Company. To establish cell-derived xenograft (CDX) models, 1 × 10⁶ AR42J cells (100 μL) were subcutaneously inoculated into the right shoulder of each mouse. […]
Radioactivity levels were measured using a gamma counter, with decay correction applied based on the injection time. The percentage of injected dose per gram of tissue (%ID/g) was calculated for each time point. […]

[1] = 3.7 MBq, Tumor-to-Bladder ratio (T/B)
[2] = 3.7 MBq, Tumor-to-Blood ratio (T/B)
[3] = 3.7 MBq, Tumor-to-Bone ratio (T/B)
[4] = 3.7 MBq, Tumor-to-Brain ratio (T/B)
[5] = 3.7 MBq, Tumor-to-Heart ratio (T/B)
[6] = 3.7 MBq, Tumor-to-Liver ratio (T/B)
[7] = 3.7 MBq, Tumor-to-Muscle ratio (T/M)
[8] = 3.7 MBq, Tumor-to-Stomach ratio (T/B)
[9] = Tumor-to-Large intestine ratio (T/B)
[10] = Tumor-to-Small intestine ratio (T/B)

CCCC[C@@H](C(=O)N[C@@H](CC(=O)O)C(=O)N[C@@H](Cc1cccc2ccccc12)C(N)=O)N(C)C(=O)[C@H](Cc1c[nH]c2ccccc12)NC(=O)CCOCCOCCOCCOCCNC(=O)CC[C@@H](NC(=O)CC[C@H](NC(=O)CN1CCN(CC(=O)O)CCN(CC(=O)O)CCN(CC(=O)O)CC1)C(=O)N[C@H](CCC(=O)NCCOCCOCCOCCOCCC(=O)N[C@@H](Cc1c[nH]c2ccccc12)C(=O)N(C)[C@@H](CCCC)C(=O)N[C@@H](CC(=O)O)C(=O)N[C@@H](Cc1cccc2ccccc12)C(N)=O)C(=O)O)C(=O)O [[177Lu]Lu-DOTA-CCK2R-dimer, metal not drawn] ({DOTA}-E([d(γGlu)-PEG4-Trp-NMeNle-Asp-1Nal-NH2])[d(γGlu)][PEG4]W[NMeNle]D[1Nal]-NH2)
tissue to tissue ratio at 24 h [1]: 35.4 ± 6.48
tissue to tissue ratio at 48 h [1]: 194 ± 91
tissue to tissue ratio at 72 h [1]: 44.7 ± 13.1
tissue to tissue ratio at 96 h [1]: 13.5 ± 4.12
tissue to tissue ratio at 1 h [2]: 2.95 ± 1.5
tissue to tissue ratio at 4 h [2]: 13.3 ± 5.68
tissue to tissue ratio at 24 h [2]: 141 ± 51.3
tissue to tissue ratio at 48 h [2]: 186 ± 14.3
tissue to tissue ratio at 72 h [2]: 768 ± 140
tissue to tissue ratio at 96 h [2]: 226 ± 40.9
tissue to tissue ratio at 1 h [3]: 35.1 ± 13.6
tissue to tissue ratio at 4 h [3]: 53.2 ± 32.6
tissue to tissue ratio at 24 h [3]: 165 ± 45
tissue to tissue ratio at 48 h [3]: 1070 ± 247
tissue to tissue ratio at 72 h [3]: 117 ± 40.1
tissue to tissue ratio at 96 h [3]: 46 ± 9.49
tissue to tissue ratio at 1 h [4]: 141 ± 50
tissue to tissue ratio at 4 h [4]: 470 ± 81.1
tissue to tissue ratio at 24 h [4]: 6080 ± 100
tissue to tissue ratio at 48 h [4]: 1710 ± 151
tissue to tissue ratio at 72 h [4]: 746 ± 85.1
tissue to tissue ratio at 96 h [4]: 189 ± 50.1
tissue to tissue ratio at 1 h [5]: 15.3 ± 5.59
tissue to tissue ratio at 96 h [5]: 105 ± 5.19
tissue to tissue ratio at 1 h [6]: 5.19 ± 2.8
tissue to tissue ratio at 4 h [6]: 4.37 ± 0.9
tissue to tissue ratio at 24 h [6]: 10 ± 0.99
tissue to tissue ratio at 48 h [6]: 7.78 ± 1.96
tissue to tissue ratio at 1 h [7]: 53.3 ± 18.2
tissue to tissue ratio at 4 h [7]: 246 ± 180
tissue to tissue ratio at 24 h [7]: 417 ± 210
tissue to tissue ratio at 48 h [7]: 531 ± 153
tissue to tissue ratio at 72 h [7]: 348 ± 238
tissue to tissue ratio at 96 h [7]: 90.8 ± 32.8
tissue to tissue ratio at 1 h [8]: 4.83 ± 1.46
tissue to tissue ratio at 96 h [8]: 13.4 ± 6.42
tissue to tissue ratio at 1 h (3.7 MBq, 1 h p.i., read-out: Tumor-to-Kidney ratio (T/B)): 2.22 ± 1.01
tissue to tissue ratio at 48 h (3.7 MBq, 48 h p.i., read-out: Tumor-to-Kidney ratio (T/B)): 4.16 ± 3.43
tissue to tissue ratio at 1 h (Tumor-to-Bladder ratio (T/B)): 24.8 ± 11
tissue to tissue ratio at 4 h (Tumor-to-Bladder ratio (T/B)): 40.4 ± 12.1
tissue to tissue ratio at 4 h (Tumor-to-Heart ratio (T/B)): 29.6 ± 12.8
tissue to tissue ratio at 24 h (Tumor-to-Heart ratio (T/B)): 134 ± 59.9
tissue to tissue ratio at 48 h (Tumor-to-Heart ratio (T/B)): 406 ± 29.2
tissue to tissue ratio at 72 h (Tumor-to-Heart ratio (T/B)): 80.5 ± 26.4
tissue to tissue ratio at 1 h [9]: 17.1 ± 5.58
tissue to tissue ratio at 4 h [9]: 24.4 ± 5.51
tissue to tissue ratio at 24 h [9]: 90.7 ± 23.4
tissue to tissue ratio at 48 h [9]: 73.2 ± 14.5
tissue to tissue ratio at 72 h [9]: 98.9 ± 74.4
tissue to tissue ratio at 96 h [9]: 26.3 ± 11
tissue to tissue ratio at 72 h (Tumor-to-Liver ratio (T/B)): 5.53 ± 1.05
tissue to tissue ratio at 96 h (Tumor-to-Liver ratio (T/B)): 2.7 ± 0.63
tissue to tissue ratio at 1 h (Tumor-to-Lung ratio (T/B)): 7.93 ± 3.29
tissue to tissue ratio at 4 h (Tumor-to-Lung ratio (T/B)): 15.9 ± 6.64
tissue to tissue ratio at 24 h (Tumor-to-Lung ratio (T/B)): 331 ± 35
tissue to tissue ratio at 48 h (Tumor-to-Lung ratio (T/B)): 900 ± 88
tissue to tissue ratio at 72 h (Tumor-to-Lung ratio (T/B)): 299 ± 66.5
tissue to tissue ratio at 96 h (Tumor-to-Lung ratio (T/B)): 61.2 ± 12.8
tissue to tissue ratio at 1 h [10]: 14 ± 5.39
tissue to tissue ratio at 4 h [10]: 28.8 ± 10.3
tissue to tissue ratio at 24 h [10]: 229 ± 10
tissue to tissue ratio at 48 h [10]: 112 ± 61
tissue to tissue ratio at 72 h [10]: 187 ± 27.7
tissue to tissue ratio at 96 h [10]: 39.6 ± 12.2
tissue to tissue ratio at 1 h (Tumor-to-Spleen ratio (T/B)): 8.21 ± 4.18
tissue to tissue ratio at 4 h (Tumor-to-Spleen ratio (T/B)): 6.59 ± 0.75
tissue to tissue ratio at 24 h (Tumor-to-Spleen ratio (T/B)): 55 ± 21.1
tissue to tissue ratio at 48 h (Tumor-to-Spleen ratio (T/B)): 124 ± 50
tissue to tissue ratio at 72 h (Tumor-to-Spleen ratio (T/B)): 51.8 ± 19.5
tissue to tissue ratio at 96 h (Tumor-to-Spleen ratio (T/B)): 9.63 ± 3.59
tissue to tissue ratio at 4 h (Tumor-to-Stomach ratio (T/B)): 5.05 ± 1.72
tissue to tissue ratio at 24 h (Tumor-to-Stomach ratio (T/B)): 5.94 ± 1.92
tissue to tissue ratio at 48 h (Tumor-to-Stomach ratio (T/B)): 4.15 ± 0.31
tissue to tissue ratio at 72 h (Tumor-to-Stomach ratio (T/B)): 8.41 ± 1.18
tissue to tissue ratio at 4 h (4 h p.i., read-out: Tumor-to-Kidney ratio (T/B)): 2.19 ± 0.23
tissue to tissue ratio at 24 h (24 h p.i., read-out: Tumor-to-Kidney ratio (T/B)): 1.84 ± 0.56
tissue to tissue ratio at 72 h (72 h p.i., read-out: Tumor-to-Kidney ratio (T/B)): 1.65 ± 0.05
tissue to tissue ratio at 96 h (96 h p.i., read-out: Tumor-to-Kidney ratio (T/B)): 1.37 ± 0.84
tissue uptake at 1 h (Bladder uptake): 0.84 ± 0.31 %ID/g
tissue uptake at 4 h (Bladder uptake): 0.4 ± 0.13 %ID/g
tissue uptake at 24 h (Bladder uptake): 0.18 ± 0.04 %ID/g
